Data reported in patent publication US20080021038A1, “Novel Piperidine/8-Azabicyclo [3.2.1.] Octan Derivatives As Modulators Of Chemokine Receptor Ccr5” (priority 2004, published 2008).
pIC50: −log10 of the molar value.

Biological target: recombinant human CCR5 receptor (Homo sapiens, UniProt P51681)
Assay: MIP-1α radioligand binding assay (scintillation proximity)
Settings: displacement of 0.1 nM iodinated MIP-1α; membranes from Chinese hamster ovary cells expressing recombinant human CCR5; average if tested more than once
Procedure: The ability of compounds to inhibit the binding of MIP-1α was assessed by an in vitro radioligand binding assay. Membranes were prepared from Chinese hamster ovary cells which expressed the recombinant human CCR5 receptor. These membranes were incubated with 0.1 nM iodinated MIP-1α, scintillation proximity beads and various concentrations of the compounds of the invention in 96-well plates. The amount of iodinated MIP-1α bound to the receptor was determined by scintillation counting. Competition curves were obtained for compounds and the concentration of compound which displaced 50% of bound iodinated MIP-1α was calculated (IC50).
In Table X the results are presented as Pic50 values. A Pic50 value is the negative log (to base 10) of the IC50 result, so an IC50 of 1 μM (that is 1×10^−6M) gives a Pic50 of 6. If a compound was tested more than once then the data below is an average of the probative tests results.

recombinant human CCR5 receptor, sequence (P51681 whole entry): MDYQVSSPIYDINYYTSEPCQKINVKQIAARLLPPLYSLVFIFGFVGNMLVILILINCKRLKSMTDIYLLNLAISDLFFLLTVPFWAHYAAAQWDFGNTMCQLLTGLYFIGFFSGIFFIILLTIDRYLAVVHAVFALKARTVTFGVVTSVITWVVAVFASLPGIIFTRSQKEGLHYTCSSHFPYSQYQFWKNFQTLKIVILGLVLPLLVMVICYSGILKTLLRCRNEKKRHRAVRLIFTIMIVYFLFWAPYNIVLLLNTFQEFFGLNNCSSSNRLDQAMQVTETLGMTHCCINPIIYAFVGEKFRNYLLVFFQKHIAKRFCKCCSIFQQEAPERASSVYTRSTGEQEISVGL

Compound	pIC50
CC1(CCS(=O)(=O)c2ccc(S(C)(=O)=O)cc2)CCN(CC[C@H](c2ccc(S(C)(=O)=O)cc2)c2cc(F)cc(F)c2)CC1 [Table I Compound 1, 1-{(3R)-3-(3,5-difluorophenyl)-3-[4-(methylsulfonyl)phenyl]propyl}-4-methyl-4-(2-{[4-(methylsulfonyl)phenyl]sulfonyl}ethyl)piperidine]	9.60
CC1(CCS(=O)(=O)c2ccc(S(C)(=O)=O)cc2)CCN(CC[C@@H](c2ccccc2)N2CCN(S(C)(=O)=O)CC2)CC1 [Table II Compound 18, 1-{(1S)-3-[4-methyl-4-(2-{[4-(methylsulfonyl)phenyl]sulfonyl}ethyl)piperidin-1-yl]-11-phenylpropyl)-4-(methylsulfonyl)piperazine]	9.20
CC1(CCS(=O)(=O)C2CCN(S(C)(=O)=O)CC2)CCN(CC[C@@H](c2cc(F)cc(F)c2)C2CCN(S(C)(=O)=O)CC2)CC1 [Table VIII Compound 2, 1-{(3R)-3-(3,5-difluorophenyl)-3-[1-(methylsulfonyl)piperidin-4-yl]propyl}-4-methyl-4-(2-{[1-(methylsulfonyl)piperidin-4-yl]sulfonyl}ethyl)piperidine]	8.70

More lines, now with the values ahead:

pIC50	Compound
8.70	CC1(CCS(=O)(=O)c2ccc(S(C)(=O)=O)cc2)CCN(CC[C@@H](c2cc(F)cc(F)c2)N2CCN(S(C)(=O)=O)CC2)CC1 [Table II Compound 19, 1-{(1S)-1-(3,5-difluorophenyl)-3-[4-methyl-4-(2-{[4-(methylsulfonyl)phenyl]sulfonyl}ethyl)piperidin-1-yl]propyl}-4-(methylsulfonyl)piperazine]
8.30	COc1ccc(S(=O)(=O)CCC2(C)CCN(CC[C@@H](c3cc(F)cc(F)c3)N3CCN(S(C)(=O)=O)CC3)CC2)cc1 [Table II Compound 20, 1-[(1S)-1-(3,5-difluorophenyl)-3-(4-{2-[(4-methoxyphenyl)sulfonyl]ethyl}-4-methylpiperidin-1-yl)propyl]-4-(methylsulfonyl)piperazine]
8.10	CC1(CCS(=O)(=O)C2CCN(C(=O)OCc3ccccc3)CC2)CCN(CC[C@@H](c2cc(F)cc(F)c2)C2CCN(S(C)(=O)=O)CC2)CC1 [Table VIII Compound 1, benzyl 4-{[2-(1-{(3R)-3-(3,5-difluorophenyl)-3-[1-(methylsulfonyl)piperidin-4-yl]propyl}-4-methylpiperidin-4-yl)ethyl]sulfonyl}piperidine-1-carboxylate]
